Laboratory results reported in patent US10036048B1, “Process for obtaining a naphthoquinone derivative from Streptomyces sp” (KING SAUD UNIVERSITY, priority 2017, dated 2018).
Values after ≈ are worked out from the molar mass of the structure shown.

Legend:
[1] = tested on: Streptomyces sp. isolate ERINLG-201; experiment: Antibiotic sensitivity of the isolate; format: cell-based
Method: (ERINLG-201). The Streptomyces sp. isolate ERINLG-201 was recovered from Kodanad forest, (Southern Western Ghats) Tamil Nadu, India. The strain was Gram-positive filamentous bacterium. The culture characteristics of the new isolate were observed after 7, 14 and 21 days of incubation on different media. The color of the substrate mycelia was white. […] The temperature for growth ranged from 25 to 37° C. with optimum of 30° C. and the pH range was 6-12 with normal pH of 7. Utilization of various carbon sources by ERINLG-201 indicated a wide pattern of carbon source assimilation. […] The partial 16S rRNA gene sequences of isolate ERINLG-201 have been deposited in the GenBank database under accession number KC820651.

Salmonella paratyphi-B = experiment: Minimum inhibitory concentration (MIC), broth dilution; format: cell-based; conditions: 24 h at 37° C.
Bacillus subtilis = experiment: as above; conditions: 24 h, read-out: Minimum Inhibitory Concentration (MIC)
Micrococcus luteus = experiment: as above; conditions: 24 h, read-out: Minimum Inhibitory Concentration (MIC)
Staphylococcus aureus = experiment: as above; conditions: 24 h, read-out: Minimum Inhibitory Concentration (MIC)
[2] = tested on: Staphylococcus epidermidis; experiment: as above; conditions: 24 h, read-out: Minimum Inhibitory Concentration (MIC)
Enterobacter aerogenes = experiment: as above; conditions: Klebsiella aerogenes, 24 h, read-out: Minimum Inhibitory Concentration (MIC)
Klebsiella pneumoniae = experiment: as above; conditions: 24 h, read-out: Minimum Inhibitory Concentration (MIC)
Proteus vulgaris = experiment: as above; conditions: 24 h, read-out: Minimum Inhibitory Concentration (MIC)
Pseudomonas aeruginosa = experiment: as above; conditions: 24 h, read-out: Minimum Inhibitory Concentration (MIC)
Salmonella typhimurium = experiment: as above; conditions: Salmonella enterica, 24 h, read-out: Minimum Inhibitory Concentration (MIC)
Shigella flexneri = experiment: as above; conditions: 24 h, read-out: Minimum Inhibitory Concentration (MIC)
[3] = tested on: Staphylococcus aureus (MRSA); experiment: Minimum inhibitory concentration (MIC), clinical isolate; conditions: 24 h, read-out: Minimum Inhibitory Concentration (MIC)
[4] = tested on: Klebsiella pneumoniae (ESBL-3894); experiment: as above; conditions: 24 h, read-out: Minimum Inhibitory Concentration (MIC)
[5] = tested on: Kiebsiella pneumoniae (ESBL-75799); experiment: as above; conditions: 24 h, read-out: Minimum Inhibitory Concentration (MIC)
[6] = tested on: Klebsiella pneumoniae (ESBL-3967); experiment: as above; conditions: 24 h, read-out: Minimum Inhibitory Concentration (MIC)
[7] = tested on: Klebsiella pneumoniae (ESBL-3971); experiment: as above; conditions: 24 h, read-out: Minimum Inhibitory Concentration (MIC)
[8] = tested on: Escherichia coli (ESBL-3904); experiment: as above; conditions: 24 h, read-out: Minimum Inhibitory Concentration (MIC)
[9] = tested on: Escherichia coli (ESBL-3984); experiment: as above; conditions: 24 h, read-out: Minimum Inhibitory Concentration (MIC)
Candida albicans = experiment: Minimum inhibitory concentration (MIC), fungi; conditions: read-out: Minimum Inhibitory Concentration (MIC)
Malassezia pachydermatis = experiment: Minimum inhibitory concentration (MIC), fungi; conditions: read-out: Minimum Inhibitory Concentration (MIC)
[10] = tested on: A549 lung adenocarcinoma cancer cell line; experiment: Cytotoxic activity (MTT, absorbance at 540 nm); format: cell-based, human
Method: A549 lung adenocarcinoma cancer cell line was obtained from the National Institute of Cell Sciences, Pune. A549 cell line was maintained in complete tissue culture medium Dulbecco's Modified Eagle's Medium with 10% Fetal Bovine Serum and 2 mM L-Glutamine, along with antibiotics (about 100 International Unit/mL of penicillin, 100 μg/mL of streptomycin) with the pH adjusted to 7.2. The cytotoxicity was determined according to the method of Balachandran et al., (2013) with some changes. Cells (5000 cells/well) were seeded in 96 well plates containing medium with different concentrations such as 100, 80, 60, 40, 20, and 10 μg/mL. The cells were cultivated at 37° C. with 5% CO2 and 95% air in 100% relative humidity. After various durations of cultivation, the solution in the medium was removed. An aliquot of 100 μL of medium containing 1 mg/mL of 3-(4,5-dimethylthiazol-2-yl)-2,5-diphenyl-tetrazolium bromide was loaded in the plate. The cells were cultured for 4 h and then the solution in the medium was removed. An aliquot of 100 μL of DMSO was added to the plate, which was shaken until the crystals were dissolved. The cytotoxicity against cancer cells was determined by measuring the absorbance of the converted dye at 540 nm in an Enzyme linked immune sorbant assay (ELISA) reader. Cytotoxicity of each sample was expressed as the half maximal inhibitory concentration (IC50) value. The IC50 value is the concentration of test sample that causes 50% inhibition of cell growth, averaged from three replicate experiments.

## CCn1cc(C(=O)O)c(=O)c2cc(F)c(N3CCNCC3)cc21 [norfloxacin]
[1]
  sensitivity of ERINLG-201 towards antibiotic: sensitivity

## CC[C@H]1OC(=O)[C@H](C)[C@@H](O[C@H]2C[C@@](C)(OC)[C@@H](O)[C@H](C)O2)[C@H](C)[C@@H](O[C@@H]2O[C@H](C)C[C@H](N(C)C)[C@H]2O)[C@](C)(O)C[C@@H](C)C(=O)[C@H](C)[C@@H](O)[C@]1(C)O [erythromycin]
[1]
  sensitivity of ERINLG-201 towards antibiotic: sensitivity

## O=C(Cc1cccs1)N[C@@H]1C(=O)N2C(C(=O)[O-])=C(C[n+]3ccccc3)CS[C@H]12 [cephaloridine]
[1]
  sensitivity of ERINLG-201 towards antibiotic: sensitivity

## NCC[C@H](O)C(=O)N[C@@H]1C[C@H](N)[C@@H](O[C@H]2O[C@H](CN)[C@@H](O)[C@H](O)[C@H]2O)[C@H](O)[C@H]1O[C@H]1O[C@H](CO)[C@@H](O)[C@H](N)[C@H]1O [amikacin]
[1]
  sensitivity of ERINLG-201 towards antibiotic: sensitivity

## gentamicin
[1]
  sensitivity of ERINLG-201 towards antibiotic: sensitivity

## [H]/N=C(/N)N[C@H]1[C@H](O)[C@@H](O)[C@H](O[C@@H]2O[C@@H](C)[C@](O)(C=O)[C@H]2O[C@@H]2O[C@@H](CO)[C@H](O)[C@@H](O)[C@@H]2NC)[C@@H](N/C(N)=N\[H])[C@@H]1O [Streptomycin]
Salmonella paratyphi-B
  MIC: 6.25 µg/mL (≈ 10.7 µM)
Bacillus subtilis
  MIC: 25 µg/mL (≈ 43 µM)
Micrococcus luteus
  MIC: 6.25 µg/mL (≈ 10.7 µM)
Staphylococcus aureus
  MIC: 6.25 µg/mL (≈ 10.7 µM)
[2]
  MIC: 25 µg/mL (≈ 43 µM)
Enterobacter aerogenes
  MIC: 25 µg/mL (≈ 43 µM)
Klebsiella pneumoniae
  MIC: 25 µg/mL (≈ 43 µM)
Proteus vulgaris
  MIC: 6.25 µg/mL (≈ 10.7 µM)
Pseudomonas aeruginosa
  MIC: 25 µg/mL (≈ 43 µM)
Salmonella typhimurium
  MIC: 25 µg/mL (≈ 43 µM)
Shigella flexneri
  MIC: 6.25 µg/mL (≈ 10.7 µM)
[3]
  MIC: 6.25 µg/mL (≈ 10.7 µM)
[4]
  MIC: 6.25 µg/mL (≈ 10.7 µM)
[5]
  MIC: 25 µg/mL (≈ 43 µM)
[6]
  MIC: 25 µg/mL (≈ 43 µM)
[7]
  MIC: 6.25 µg/mL (≈ 10.7 µM)
[8]
  MIC: 25 µg/mL (≈ 43 µM)
[9]
  MIC: 25 µg/mL (≈ 43 µM)

## vencomycin
[1]
  sensitivity of ERINLG-201 towards antibiotic: sensitivity

## O=C(O)c1cn(C2CC2)c2cc(N3CCNCC3)c(F)cc2c1=O [ciprofloxacin]
[1]
  sensitivity of ERINLG-201 towards antibiotic: sensitivity

## penicillin
[1]
  sensitivity of ERINLG-201 towards antibiotic: sensitivity

## CC(=O)N1CCN(c2ccc(OCC3COC(Cn4ccnc4)(c4ccc(Cl)cc4Cl)O3)cc2)CC1 (stereo not drawn) [Ketoconazole]
Candida albicans
  MIC: 25 µg/mL (≈ 47 µM)
Malassezia pachydermatis
  MIC: 25 µg/mL (≈ 47 µM)

## CC1(C)S[C@@H]2[C@H](NC(=O)[C@H](N)c3ccccc3)C(=O)N2[C@H]1C(=O)O [ampicillin]
[1]
  sensitivity of ERINLG-201 towards antibiotic: sensitivity

## CO[C@H]1/C=C/O[C@@]2(C)Oc3c(C)c(O)c4c(O)c(cc(O)c4c3C2=O)NC(=O)/C(C)=C\C=C\[C@H](C)[C@H](O)[C@@H](C)[C@@H](O)[C@@H](C)[C@H](OC(C)=O)[C@@H]1C [rifamycin]
[1]
  sensitivity of ERINLG-201 towards antibiotic: sensitivity

## CN1C(=O)N2CC(C)(OC3=C2C(=O)c2ccccc2C3=O)c2ccccc21 (stereo not drawn) [C-5, Bluemomycin]
Salmonella paratyphi-B
  MIC: 25 µg/mL (≈ 69.4 µM)
[10]; 5 μg/mL
  % (cytotoxicity): 10.5%
[10]; 10 μg/mL
  % (cytotoxicity): 26.3%
[10]; 20 μg/mL
  % (cytotoxicity): 51.7%
[10]; 40 μg/mL
  % (cytotoxicity): 60.2%
[10]; 60 μg/mL
  % (cytotoxicity): 68.6%
[10]; 80 μg/mL
  % (cytotoxicity): 78.6%
[10]; 100 μg/mL
  % (cytotoxicity): 88.7%
Candida albicans
  MIC: 50 µg/mL (≈ 139 µM)
Malassezia pachydermatis
  MIC: 50 µg/mL (≈ 139 µM)
Bacillus subtilis
  MIC: 50 µg/mL (≈ 139 µM)
Micrococcus luteus
  MIC: 25 µg/mL (≈ 69.4 µM)
Staphylococcus aureus
  MIC: > 100 µg/mL
[2]
  MIC: 50 µg/mL (≈ 139 µM)
Enterobacter aerogenes
  MIC: 12.5 µg/mL (≈ 34.7 µM)
Klebsiella pneumoniae
  MIC: 6.25 µg/mL (≈ 17.3 µM)
Proteus vulgaris
  MIC: 100 µg/mL (≈ 277 µM)
Pseudomonas aeruginosa
  MIC: 12.5 µg/mL (≈ 34.7 µM)
Salmonella typhimurium
  MIC: 12.5 µg/mL (≈ 34.7 µM)
Shigella flexneri
  MIC: 12.5 µg/mL (≈ 34.7 µM)
[3]
  MIC: 25 µg/mL (≈ 69.4 µM)
[4]
  MIC: 12.5 µg/mL (≈ 34.7 µM)
[5]
  MIC: 12.5 µg/mL (≈ 34.7 µM)
[6]
  MIC: 6.25 µg/mL (≈ 17.3 µM)
[7]
  MIC: > 100 µg/mL
[8]
  MIC: 25 µg/mL (≈ 69.4 µM)
[9]
  MIC: 12.5 µg/mL (≈ 34.7 µM)
